Source: patent publication US20220380319A1 (Bial - R&D Investments, S.A., priority 2019, published 2022)
Converted amounts (≈) assume the structure as drawn.

Assays:
[1] = biological target: T1, acid ceramidase (Homo sapiens, UniProt Q13510); experiment: Acid ceramidase inhibition, biochemical fluorescent assay with cell lysates overexpressing acid ceramidase, substrate Rbm14-12; details: substrate Rbm14-12 6.3 μM
T1 construct: Cell lysates overexpressing acid ceramidase were used as the enzyme source; expressed in transfected cells
T1 sequence (Q13510 22-395): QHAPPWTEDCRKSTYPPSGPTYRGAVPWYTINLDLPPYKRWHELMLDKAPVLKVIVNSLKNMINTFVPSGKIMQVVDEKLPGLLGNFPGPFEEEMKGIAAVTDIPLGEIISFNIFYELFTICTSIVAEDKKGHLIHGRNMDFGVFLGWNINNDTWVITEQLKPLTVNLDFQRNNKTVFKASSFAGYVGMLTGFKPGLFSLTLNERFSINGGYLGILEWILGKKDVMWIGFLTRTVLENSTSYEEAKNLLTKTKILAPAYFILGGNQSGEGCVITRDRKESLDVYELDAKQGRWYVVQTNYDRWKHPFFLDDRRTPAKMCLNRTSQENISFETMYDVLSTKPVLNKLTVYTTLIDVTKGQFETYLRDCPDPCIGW
Outline: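 IC50 derived by four-parameter fitting of fluorescence (ex360 nm, em446 nm) produced after 1 hr in methanol/NaIO4/glycine stop buffer, pH 10.6. Reaction: 6.3 μM Rbm14-12, 1 hr RT, following 1 hr RT compound preincubation with 10 μg overexpressing-cell lysate protein in pH 4.5 NaAC/NaCl buffer.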

[2] = physchem; details: water
[3] = Compound solubility in water
[4] = pH 4.5, 1 hr preincubation at RT

Row | IC50 ([1]; pH 4.5) | solubility [3] | IC50 [1, 4] | SMILES | solubility [2]
1 | < 200 nM | 4 µg/mL (≈ 9.7 µM) | – | COc1nc2ccc(N3CCOCC3)cc2n1C(=O)NCCCc1ccc(F)cc1 [Example 221a] | –
2 | < 200 nM | 38 µg/mL (≈ 96.6 µM) | – | CN(C)CC1CN(c2cccc3c2ncn3C(=O)NCCOc2ccccc2)C1 [Example 330, 4-(3-((Dimethylamino)methyl)azetidin-1-yl)-N-(2-phenoxyethyl)-1H-benzo[d]imidazole-1-carboxamide] | –
3 | < 200 nM | 17 µg/mL (≈ 38.8 µM) | – | COCCOc1nc2cc(N3CCOCC3)ccc2n1C(=O)NCCCc1ccccc1 [Example 190a, 2-(2-Methoxyethoxy)-5-morpholino-N-(3-phenylpropyl)-1H-benzo[d]imidazole-1 carboxamide] | –
4 | 200 to 1000 nM | 4 µg/mL (≈ 11.6 µM) | – | CC(C)CCNC(=O)n1cnc2c(N3C[C@@H](C)O[C@@H](C)C3)cccc21 [Example 167, 4-((2S,6R)-2,6-Dimethylmorpholino)-N-iso-pentyl-1H-benzo[d]imidazole-1-carboxamide] | –
5 | < 200 nM | 26 µg/mL (≈ 69.1 µM) | – | CCN1CCC(c2cccc3c2ncn3C(=O)NCCCc2ccccc2)C1 (stereo not shown) [Example 261, 4-(1-Ethylpyrrolidin-3-yl)-N-(3-phenylpropyl)-1H-benzo[d]imidazole-1-carboxamide] | –
6 | – | 17 µg/mL (≈ 43.9 µM) | < 200 nM | CN(C)C1CN(c2cccc3c2ncn3C(=O)NCCC#Cc2ccccc2)C1 [Example 364, 4-(3-(Dimethylamino)azetidin-1-yl)-N-(4-phenylbut-3-ynyl)-1H-benzo[d]imidazole-1-carboxamide] | –
7 | 200 to 1000 nM | 28 µg/mL (≈ 67.1 µM) | – | O=C(NCCC1CCC(F)(F)C1)n1cnc2c(N3CCN4CCCC4C3)cccc21 (stereo not shown) [Example 290, N-(2-(3,3-Difluorocyclopentyl)ethyl)-4-(hexahydropyrrolo[1,2-a]pyrazin-2(1H)-yl)-1H-benzo[d]imidazole-1-carboxamide] | –

The next lines start with the molecule.

Row | SMILES | IC50 ([1]; pH 4.5) | solubility [3] | IC50 [1, 4] | solubility [2]
8 | O=C(NCCCc1ccccc1)n1cnc2c(N3CC3C(F)(F)F)cccc21 (stereo not shown) [Example 242, N-(3-phenylpropyl)-4-(2-(trifluoromethyl)aziridin-1-yl)-1H-benzo[d]imidazole-1-carboxamide] | < 200 nM | – | – | 1 µg/mL (≈ 2.57 µM)
9 | CC(C)CCNC(=O)n1cnc2c(N3CC3C(F)(F)F)cccc21 (stereo not shown) [Example 164, N-iso-Pentyl-4-(2-(trifluoromethyl)-aziridin-1-yl)-1H-benzo[d]imidazole-1-carboxamide] | < 200 nM | – | – | 2 µg/mL (≈ 5.88 µM)
10 | O=C(NCCCc1ccccc1)n1cnc2c(N3CC3F)cccc21 (stereo not shown) [Example 274, 4-(2-Fluoroaziridin-1-yl)-N-(3-phenylpropyl)-1H-benzo[d]imidazole-1-carboxamide] | < 200 nM | – | – | 17 µg/mL (≈ 50.2 µM)
11 | CC(C)C#CCNC(=O)n1cnc2c(N3CC3C(F)(F)F)cccc21 (stereo not shown) [Example 308, N-(4-Methylpent-2-yn-1-yl)-4-(2-(trifluoromethyl)-aziridin-1-yl)-1H-benzo[d]imidazole-1-carboxamide] | < 200 nM | – | – | 1 µg/mL (≈ 2.85 µM)
12 | CCCCNC(=O)n1c(OC)nc2ccc(-c3cncnc3)cc21 [Example 82a, N-Butyl-2-methoxy-6-(pyrimidin-5-yl)-1H-benzo[d]imidazole-1-carboxamide] | – | 21.8 µg/mL (≈ 67 µM) | 200 to 1000 nM | –
13 | CN1CCC(c2c(C(F)(F)F)ccc3c2ncn3C(=O)NCCc2ccccc2)CC1 [Example 55, 4-(1-Methylpiperidin-4-yl)-N-phenethyl-5-(trifluoromethyl)-1H-benzo[d]imidazole-1-carboxamide] | – | 13 µg/mL (≈ 30.2 µM) | < 200 nM | –
14 | CN1CCC(c2ccc3c(c2)ncn3C(=O)NCCc2ccccc2)CC1 [Example 4, 5-(1-Methylpiperidin-4-yl)-N-phenethyl-1H-bezo[d]imidazole-1-carboxamide] | – | 20.6 µg/mL (≈ 56.8 µM) | < 200 nM | –
